Data published in patent US11572341B2, “Biguanide compound and use thereof” (ImmunoMet Therapeutics Inc., priority 2014, dated 2023).
Structures can show the parent of a compound that is named as a salt. Where two headings read alike, the source gives them in different places.

How the values were obtained:
AMPKa [pT172] = assay: AMPKa activation [pT172] in MCF7 cell; format: cell-based
HCT116 cells = assay: Inhibitory effect against cancer cell proliferation (MTT); format: cell-based, human; conditions: Homo sapiens, HCT-116; HCT116, MTT, 48 hours; read-out: IC50 (uM) @ HCT116
Method: The formazane crystals thus formed were dissolved using dimethyl sulfoxide (DMSO) and absorbance of the solution was measured at 560 nm. After culturing for 48 hours, […] synthesized in Examples was indicated as cell viability (%) according to each treated concentration.

A549 cell line = assay: Oxygen consumption rate (OCR) and extracellular acidification rate (ECAR) in A549 cells; format: cell-based; conditions: Homo sapiens, A549, 3 hrs, control group set at 0%, phenformin set at 100%
Method: A549 cell line (purchased from ATCC-American Type Culture Collection (ATCC)), a lung cancer cell line, is treated with the compounds and OCR and ECAR of the cells are measured and thereby those compounds which show an improved effect compared to phenformin are selected.
The cells are plated on an XF96 cell culture plate containing RPMI1640 medium at a concentration of 5×10^3 cells and cultured in 37° C., 5% CO2 conditions to allow them to be attached thereto.
After 24 hours, the cells are treated with the drug at a concentration of 10 μM for 2 hours, the existing medium is washed with a medium for XF analysis (15 mM D-glucose, 15 mM sodium pyruvate, 4 mM L-glutamine, pH 7.4) to remove the medium using a Prep station and treated again with the drugs, and cultured in 37° C., non-CO2 conditions in the Prep station for 1 hour. While culturing in the Prep station, a sensor cartridge is calibrated for 1 hour and added into a plate containing cells, and OCR and ECAR analyses are performed.
The measured values of OCR and ECAR of the compounds are calculated with reference to the measured values of OCR and ECAR of the control group which is set at 0% and the values of OCR and ECAR of phenformin, which was used as the reference drug, set at 100%, and those compounds which show an improved effect compared to those of phenformin are selected.
From the primarily-selected compounds, those compounds which show an improved effect are treated at various concentrations (0 μM, 0.5 μM, 1 μM, 5 μM, 10 μM, and 20 μM) and their reactivity according to concentration was obtained.

| IC50 (HCT116 cells) [µM] | SMILES | AMPKa activation [pT172] (Unit/ml) @ MCF7 cell (AMPKa [pT172]; 5 uM) [Unit/ml] | AMPKa activation [pT172] (Unit/ml) @ MCF7 cell (AMPKa [pT172]; 50 uM) [Unit/ml] | Emax at 10 µM (A549 cell line; read-out: ECAR (A549, 3 hrs)) [%] | Emax at 10 µM (A549 cell line; read-out: OCR (A549, 3 hrs)) [%] |
| --- | --- | --- | --- | --- | --- |
| > 100 | Cl.N=C(N)NC(=N)NCc1ccc(F)cc1 [Example 132, N1-(4-fluoro)benzyl Biguanide Hydrochloride] | 6.1 | 8.1 | 44.7 | 39.3 |
| > 100 | Cl.N=C(N)NC(=N)N1CCN(c2ccccn2)CC1 [Example 127, N1-4-(pyridin-2-yl)piperazine Biguanide Hydrochloride] |  | 5.8 | 7 | 10.2 |
| 101 | N=C(N)NC(=N)Nc1ccc(Br)cc1 [Example 116, N1-(4-bromo)phenyl Biguanide Hydrochloride] |  | 25.9 | -24 | 0 |
